# Test results reported in PubChem BioAssay (NCI).
# Where “and” joins values, the source holds several entries; their conditions need not be identical. Equal values may be shown once.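 1) Cells in 96-well plates. 2) Compound, 48 h, 5 concentrations. 3) Linear interpolation between surrounding doses. 4) Unreached endpoint = highest concentration. GI50 is the concentration that inhibits growth by half. TGI: concentration producing complete growth inhibition.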
# How the values were obtained:
# Experiment in all cases: inhibition of tumour cell growth, NCI panel, 48 h
# A498 renal = test system: A498 renal
# ACHN renal = test system: ACHN renal
# EKVX NSCLC = test system: EKVX NSCLC
# HCT-15 colon = test system: HCT-15 colon
# MDA-MB-435 = test system: MDA-MB-435
# OVCAR-5 ovarian = test system: OVCAR-5 ovarian
# RPMI-8226 leukemia = test system: RPMI-8226 leukemia
# SK-OV-3 ovarian = test system: SK-OV-3 ovarian
# SR leukemia = test system: SR leukemia
# T-47D breast = test system: T-47D breast
SMILES,GI50 (A498 renal),TGI (A498 renal),GI50 (ACHN renal),TGI (ACHN renal),GI50 (EKVX NSCLC),TGI (EKVX NSCLC),GI50 (HCT-15 colon),TGI (HCT-15 colon),GI50 (MDA-MB-435),TGI (MDA-MB-435),GI50 (OVCAR-5 ovarian),TGI (OVCAR-5 ovarian),GI50 (RPMI-8226 leukemia),TGI (RPMI-8226 leukemia),GI50 (SK-OV-3 ovarian),TGI (SK-OV-3 ovarian),GI50 (SR leukemia),TGI (SR leukemia),GI50 (T-47D breast),TGI (T-47D breast)
CCN(Cc1nc2cc(C(F)(F)F)ccc2nc1-c1ccccc1)c1ccc(OC)c(OC)c1,4.42 µM,20.7 µM,16.4 µM,44 µM,20.1 µM,73.6 µM,16.3 µM,34.5 µM,16.4 µM,32.4 µM,21.6 µM,46 µM,2.51 µM,11.2 µM,39.8 µM,> 100 µM,7.61 µM,31.2 µM,18.5 µM,61.2 µM
CS(=O)(=O)OCCN(CCOS(C)(=O)=O)c1ccc(C=Nc2ccc3oc(=O)ccc3c2)cc1,,4.67 µM,,4.91 µM,,36.5 µM,,37.9 µM,,26.1 µM,,28.9 µM,,49.1 µM,,9.92 µM,,40.1 µM,,72.8 µM
O=C(O)c1ccc(S(=O)(=O)N=Nc2c(O)[nH]c3ccccc23)cc1,,> 100 µM,,> 100 µM,,> 100 µM,,> 100 µM,,> 100 µM,,> 100 µM,,> 100 µM,,> 100 µM,,> 100 µM,,> 100 µM
COc1ccc(NC(=O)c2sc3nc(C)c(C(O)c4ccc(OC)cc4)cc3c2N)cc1 (configuration not stated),0.156 µM,39.1 µM,2.51 µM,> 50 µM,3.13 µM,> 50 µM,0.414 µM,> 50 µM,0.121 µM,0.387 µM,1.87 µM,> 50 µM,1.62 µM,> 50 µM,1.89 µM,> 50 µM,0.256 µM,> 50 µM,10.5 µM,> 50 µM
COc1cccc(Cn2cc3c(c2)-c2oncc2CC3)c1,0.239 µM,1.19 µM,0.876 µM,> 100 µM,0.508 µM,> 77 µM,0.401 µM,> 38.1 µM,0.0769 µM,0.327 µM,0.693 µM,> 100 µM,0.365 µM,,0.361 µM,6.03 µM,0.312 µM,6.03 µM,0.246 µM,6.38 µM
O=C(NCCN1CCOCC1)Nc1ccc(-c2cc3c(Nc4ccc(Oc5cccc(C(F)(F)F)c5)c(Cl)c4)ncnc3s2)cc1,2.04 µM,7.79 µM,1.74 µM,6.06 µM,2.27 µM,8.61 µM,0.95 µM,1.92 µM,0.987 µM,2 µM,1.66 µM,6.32 µM,1.4 µM,3.54 µM,1.88 µM,7.49 µM,1.47 µM,27.6 µM,1.07 µM,3.21 µM
COc1cc(-c2nn(C(=O)NS(=O)(=O)c3ccc(C)cc3)cc2-c2ccncc2)ccc1Cl,6.98 µM,39.6 µM,3.48 µM,36.1 µM,2.78 µM,27.6 µM,10.2 µM,44.7 µM,5.6 µM,25.3 µM,5.53 µM,39.4 µM,15.5 µM,> 100 µM,3.38 µM,13.6 µM,5.1 µM,40.9 µM,6.34 µM,31.2 µM
O=C(O)C(Br)C(Br)c1ccccc1[N+](=O)[O-] (configuration not stated),,> 100 µM,,> 100 µM,,> 100 µM,,> 100 µM,,> 100 µM,,> 100 µM,,> 100 µM,,> 100 µM,,> 100 µM,,> 100 µM
O=C(c1ccco1)c1c(C(F)(F)F)nc2cc(C(F)(F)F)ccc2[n+]1[O-],20.5 µM,63.8 µM,82.1 µM,> 100 µM,50.6 µM,> 100 µM,> 100 µM,> 100 µM,> 100 µM,> 100 µM,67.8 µM,> 100 µM,34.4 µM,> 100 µM,20.3 µM,64.6 µM,33.7 µM,> 100 µM,18.9 µM,49.6 µM
O=C(NCCCNC(=O)OCc1ccc2c(Br)cc(Br)c(O)c2n1)OCc1ccc2c(Br)cc(Br)c(O)c2n1,> 100 µM,> 100 µM,> 100 µM,> 100 µM,> 100 µM,> 100 µM,> 100 µM,> 100 µM,> 100 µM,> 100 µM,> 100 µM,> 100 µM,> 100 µM,> 100 µM,> 100 µM,> 100 µM,> 100 µM,> 100 µM,> 100 µM,> 100 µM
c1ccc2cc(OCC3CO3)c(OCC3CO3)cc2c1 (configuration not stated),,24.7 µM,,6.05 µM,,24.1 µM,,16.6 µM,,21.7 µM,,23.4 µM,,9.8 µM,,22.3 µM,,2.15 µM,,45.4 µM
CS(=O)c1ccc(-c2nc(-c3ccc(F)cc3)c(-c3ccncc3)[nH]2)cc1 (configuration not stated),10.6 µM,53.5 µM,21.4 µM,> 100 µM,49 µM,> 100 µM,30.2 µM,> 100 µM,20.7 µM,> 100 µM,55 µM,> 100 µM,26.2 µM,83.6 µM,18.8 µM,> 82 µM,16.4 µM,> 77 µM,18 µM,> 100 µM
O=C1NC(=O)C2(CCC(O)C2)c2cc[n+]([O-])cc21 (configuration not stated),,> 100 µM,,> 100 µM,,> 100 µM,,> 100 µM,,> 100 µM,,> 100 µM,,> 100 µM,,> 100 µM,,> 100 µM,,> 100 µM
C=C1CC2(OC1=O)c1ccccc1C=Cc1ccccc12,,25 µM,,9.83 µM,,18.3 µM,,7.77 µM,,3.37 µM,,22.5 µM,,8.68 µM,,30.8 µM,,9.17 µM,,4.37 µM
O=[N+]([O-])c1cc(Cl)cc2c1nc(NCCO)c1ccccc12,,56.4 µM,,> 100 µM,,> 100 µM,,> 100 µM,,> 100 µM,,> 63 µM,,> 100 µM,,> 100 µM,,7.09 µM,,> 100 µM
BrC(Br)(Br)c1cnc2ccccc2n1,9 µM,21.2 µM,1.41 µM,2.84 µM,2.99 µM,13.2 µM,2.03 µM,6.2 µM,2.14 µM,6.29 µM,2.77 µM,7.45 µM,2.18 µM,6.02 µM,3.38 µM,13.6 µM,1.79 µM,5.81 µM,1.33 µM,3.31 µM
CC(=O)NCCCCCCNC(C)=O,,> 9690 µM,,> 10000 µM,,> 10000 µM,,> 10000 µM,,> 10000 µM,,> 10000 µM,,> 10000 µM,,> 10000 µM,,> 10000 µM,,> 10000 µM
CCCCN(CCCC)CC(C)(C)C(O)c1ccc(OC)c2ccccc12 (configuration not stated),4.27 µM,22.9 µM,3.96 µM,16 µM,4.24 µM,22.9 µM,3.88 µM,16.5 µM,5.05 µM,28.6 µM,2.4 µM,16.4 µM,2.5 µM,5.93 µM,5.29 µM,28.7 µM,2.89 µM,8.34 µM,3.77 µM,17 µM
O=C1C(Cl)=C(Nc2cccc(C(F)(F)F)c2)C(=O)N1Cc1ccccc1Cl,5.06 µM,19.7 µM,4.84 µM,17.1 µM,15.7 µM,37 µM,3.42 µM,20.6 µM,2.49 µM,12.2 µM,18.3 µM,37 µM,2.17 µM,> 23.5 µM,20.3 µM,39.8 µM,3.72 µM,28 µM,12.8 µM,40.7 µM
CCCC[P+](c1ccccc1)(c1ccccc1)c1ccccc1,3.46 µM,29.5 µM,29 µM,> 100 µM,1 µM,> 100 µM,> 100 µM,> 100 µM,1.63 µM,82.6 µM,12.5 µM,> 100 µM,0.193 µM,0.869 µM,13.4 µM,> 100 µM,1.96 µM,> 100 µM,0.628 µM,> 100 µM
CCCCCC(=O)OCC(=O)O[C@@H]1C[C@]2(C(C)C)O[C@@]1(C)[C@@H]1CC[C@@H](C)[C@H]1[C@@H]2OC(=O)/C=C/c1ccccc1,0.0525 µM,0.306 µM,0.0387 µM,10.1 µM,> 54.5 µM,> 100 µM,> 34.3 µM,> 70 µM,> 58.2 µM,> 86.4 µM,> 81.7 µM,> 100 µM,43.3 µM,> 100 µM,> 85.2 µM,> 100 µM,19.7 µM,> 100 µM,10 µM,> 92.7 µM
O=C(Nc1cccc2cccnc12)c1ccc(N2C(=O)[C@@H]3[C@H](C2=O)[C@@H]2C=C[C@H]3C2)cc1,14.5 µM,> 93.2 µM,36.4 µM,> 100 µM,32.2 µM,> 100 µM,30.7 µM,> 100 µM,32.1 µM,> 100 µM,55.9 µM,> 100 µM,23.2 µM,> 88.2 µM,> 62.4 µM,> 100 µM,30 µM,> 100 µM,20.2 µM,> 79.3 µM
COc1cccc2c1cc([N+](=O)[O-])c1c(C(=O)O)cc3c(c12)OCO3,16 µM,32.9 µM and 83.4 µM,35.2 µM,> 100 µM,26.6 µM,91.7 µM and > 100 µM,29.1 µM,> 100 µM and 38.6 µM,41.5 µM,> 100 µM,22.3 µM,> 87.6 µM,37.1 µM,> 100 µM,38.4 µM,> 100 µM,24.9 µM,75.7 µM and 78.9 µM,66.3 µM,> 100 µM
CCCC(=O)NC(c1ccc2c(c1)OCO2)c1ccc2cccnc2c1O (configuration not stated),3.22 µM,12.6 µM,0.466 µM,> 100 µM,1.73 µM,21.4 µM,0.394 µM,24.6 µM,3.7 µM,> 100 µM,2.75 µM,> 100 µM,1.03 µM,27.8 µM,1.89 µM,29.7 µM,0.402 µM,> 100 µM,2.24 µM,> 100 µM
COc1cc(-c2nc(SCC(=O)Nc3ccc(C(C)=O)cc3)[nH]c(=O)c2C#N)cc(OC)c1OC,21.3 µM,85 µM,85 µM,> 100 µM,> 100 µM,> 100 µM,> 100 µM,> 100 µM,24.4 µM,87.6 µM,85.1 µM,> 100 µM,29.9 µM,> 100 µM,38.6 µM,> 100 µM,19 µM,> 100 µM,34 µM,> 100 µM
O=C1C=CN(C2OC(CO)C(O)C2O)C(=O)C1 (configuration not stated),,> 2500 µM,,> 2500 µM,,> 2500 µM,54.6 µM,625 µM and > 2500 µM,,> 2500 µM,,> 2500 µM,23.1 µM,496 µM and > 2500 µM,580 µM,625 µM and > 2320 µM,,> 2500 µM,,> 1750 µM
O=C(O)c1ccc(-c2ccc(C(=O)O)cc2I)c(I)c1,> 100 µM,> 100 µM,> 100 µM,> 100 µM,> 100 µM,> 100 µM,> 100 µM,> 100 µM,> 100 µM,> 100 µM,> 100 µM,> 100 µM,> 100 µM,> 100 µM,> 100 µM,> 100 µM,> 100 µM,> 100 µM,> 100 µM,> 100 µM
Oc1ccc(/C=N/Nc2nc3ccccc3s2)c(O)c1,4.16 µM,36.8 µM,1.11 µM,9.89 µM,2.86 µM,> 100 µM,0.734 µM,20.6 µM,3.08 µM,> 100 µM,2.59 µM,21 µM,2.55 µM,> 100 µM,2.14 µM,8.93 µM,1.53 µM,11.4 µM,3.37 µM,> 100 µM
